#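 Results reflect a 48-hour exposure of cells in 96-well plates to compound at five concentrations. The concentration for 50% growth inhibition is given as GI50.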 Active and inactive are the calls of the source. Rule as the data show it: active = GI50 up to about 1.1 µM and inactive = higher.
# What was measured:
# Assay in all cases: DTP human tumour cell line panel, 48 h
# DU-145 = test system: DU-145
# NCI-H522 = test system: NCI-H522
# SK-MEL-28 = test system: SK-MEL-28
# NCI-H23 = test system: NCI-H23
# RPMI-8226 = test system: RPMI-8226
# NCI/ADR-RES = test system: NCI/ADR-RES
# SN12C = test system: SN12C
# SF-295 = test system: SF-295
# RXF 393 = test system: RXF 393
# SK-MEL-5 = test system: SK-MEL-5
# SR = test system: SR
# CCRF-CEM = test system: CCRF-CEM
# M14 = test system: M14
# HCT-15 = test system: HCT-15
# NCI-H226 = test system: NCI-H226
# A498 = test system: A498
# HT-29 = test system: HT-29
# LOX IMVI = test system: LOX IMVI
# SNB-75 = test system: SNB-75
# K562 = test system: K562
SMILES,GI50 (DU-145),GI50 (NCI-H522),GI50 (SK-MEL-28),GI50 (NCI-H23),GI50 (RPMI-8226),GI50 (NCI/ADR-RES),GI50 (SN12C),GI50 (SF-295),GI50 (RXF 393),GI50 (SK-MEL-5),GI50 (SR),GI50 (CCRF-CEM),GI50 (M14),GI50 (HCT-15) [µM],GI50 (NCI-H226),GI50 (A498),GI50 (HT-29),GI50 (LOX IMVI),GI50 (SNB-75),GI50 (K562)
N#Cc1nc(COCCOCc2ccc(F)cc2)oc1N,> 100 µM (inactive),29 µM (inactive),> 100 µM (inactive),> 100 µM (inactive),> 100 µM (inactive),> 100 µM (inactive),> 100 µM (inactive),> 100 µM (inactive),> 100 µM (inactive),> 100 µM (inactive),> 100 µM (inactive),64.6 µM (inactive),> 100 µM (inactive),> 100,> 100 µM (inactive),> 100 µM (inactive),> 100 µM (inactive),> 100 µM (inactive),> 100 µM (inactive),> 100 µM (inactive)
c1ccc(-c2ccc(-c3ccc(C4=NCCN4)cc3)o2)cc1,3.25 µM (inactive),2.02 µM (inactive),1.8 µM (inactive),4.32 µM (inactive),0.94 µM (active),4.3 µM (inactive),2.99 µM (inactive),1.92 µM (inactive),2.56 µM (inactive),2.08 µM (inactive),0.773 µM (active),1.56 µM (inactive),1.68 µM (inactive),1.87,2.99 µM (inactive),1.76 µM (inactive),1.77 µM (inactive),1.93 µM (inactive),2.38 µM (inactive),1.42 µM (inactive)
COc1ccc(N2C(=O)C(Cl)C2c2cc3cc(Br)ccc3nc2Cl)cc1 (stereo not given),7.46 µM (inactive),3.81 µM (inactive),7.28 µM (inactive),5.98 µM (inactive),6.59 µM (inactive),5.41 µM (inactive),5.79 µM (inactive),11.9 µM (inactive),4.09 µM (inactive),4.37 µM (inactive),1.33 µM (inactive),1.86 µM (inactive),4.86 µM (inactive),4.71,5.62 µM (inactive),16.6 µM (inactive),4.68 µM (inactive),0.838 µM (active),20.5 µM (inactive),7.24 µM (inactive)
CO[C@H]1C[C@H](O[C@H]2CC[C@@]3(C)[C@H](CC[C@@H]4[C@@H]3CC[C@]3(C)[C@@H](C5=CC(=O)OC5)CC[C@]43O)C2)O[C@H](C)[C@H]1O,< 0.01 µM (active),< 0.01 µM (active),0.024 µM (active),< 0.01 µM (active),< 0.01 µM (active),< 0.01 µM (active),< 0.01 µM (active),< 0.01 µM (active),< 0.01 µM (active),< 0.01 µM (active),< 0.01 µM (active),< 0.01 µM (active),0.0168 µM (active),< 0.01,< 0.0184 µM (active),0.0113 µM (active),< 0.01 µM (active),< 0.01 µM (active),< 0.0134 µM (active),< 0.01 µM (active)
